{
  "source": "patent US20060019312A1",
  "about": "“CIS-interactions between MHC molecules and co-expressed proteins, related neurological and non-neurological disorders and related therapeutic/diagnostic utilities” (priority 2004, published 2006)",
  "test_system": "GluR1 / MHC class I (b2m)",
  "assay": "Co-immunoprecipitation of GluR1 with anti-b2m antibodies from brain slices, Western blot with anti-GluR1",
  "assay_type": "cell-based, mouse",
  "conditions": "NMDA 40 micromolar in ACSF, 3 minutes, 30 min wash",
  "protocol": "FIG. 6 is a representation of a Western blot which illustrates that the NMDA-dependent Glutamate receptor co-immunoprecipitates with an MHC Class I molecule; 400-micron-thick slices of adult mouse brain (wild type or b2m-/-TAP-/- [MHC class I-deficient]) were cut and allowed to recover in oxygenated (95% O2, 5% CO2) artifical cerebro-spinal fluid (ACSF) for 1 hour at room temperature; a subset of slices were then transferred to a recording chamber and allowed to recover for 40 min in flowing oxygenated ACSF (2 ml/minute); these slices were treated with NMDA (40 micromolar in ACSF, 3 minutes) and then washed for 30 min in oxygenated ACSF; at this time, all slices (treated and untreated) were homogenized as below and processed for immunoprecipitation with antibodies against b2m, IgG, or GluR1, and the resulting precipitates were probed in Western blots with antibodies against GluR1.\nHippocampal slice (400 um) samples were prepared by homogenizing tissue in NP40 Lysis buffer (50 mM Tris, 150 mM NaCl, 1 mM EDTA, 1% NP40, pH 7.6) with protease inhibitors (1 ug/mL aprotinin, 1 ug/mL leupeptin, 1 ug/mL pepstatin, 1 mM Na orthovanadate, 1 mM PMSF, phosphatase inhibitor cocktail sigma, 1:100). After letting the tissue sit on ice for 15 min., samples were centrifuged at 13,000 rpm, 4°, for 10 min. […]",
  "data": [
    {"smiles": "CN[C@H](CC(=O)O)C(=O)O", "note": "[NMDA]", "values": [
      {"measurement": "co-immunoprecipitation of GluR1 with anti-b2m antibodies", "setting": "MHC-deficient (b2m-/- TAP-/-; KO) adult mouse brain slices", "result": "fails to induce coimmunoprecipitation of GluR1"},
      {"measurement": "co-immunoprecipitation of GluR1 with antibodies against the light chain of MHC class I (b2m)", "setting": "WT adult mouse brain slices", "result": "co-precipitates GluR1 only after NMDA treatment"}
    ]}
  ]
}
